Measurements: US20040097464A1, “Mixture of non-sulfated fucose-based oligosaccharides, a cosmetic or pharmaceutical composition comprising said mixture and its use in cosmetics or pharmacy” (priority 2000, published 2004)

How the values were obtained:
Type in all cases: cell-based, human
[1] = test system: MMP-9; assay: MMP activity of non-stimulated skin explants (gelatin zymography), MMP-9; settings: 10 μg/ml, 48 hours
Procedure: (§1) Skin explants from a skin of the belly of a person were cultivated in a DMEM medium without phenol red (GIBCO) under stirring at 37° C. for 48 hours with different treatments. The samples were treated with a concentration of 10 μg/ml.
(§2) Extracellular medium-1 ml of medium
(§3) Intracellular medium-explant ground with ultraturax in 1 ml of MMP buffer
(§4) 0.1 M Tris-HCl, pH 7.5, 0.1 M NaCl, 10 mM CaCl2, 1 mM zinc acetate
(§5) Gelatin, substrate of the MMP-s, was co-polymerized at final 1 mg/ml with a gel of polyacrylamide at 10%. The extracellular media from the cultures of skin explant were deposited on the top of the gel, the electrophoresis was carried out at 150 volts. The gels were then incubated in MMP buffer for 24 hours under stirring at 37° C. The gels were then colored with Coomassie blue, then uncolored with distilled water. The lise ranges corresponding to an MMP activity, appeared as white, while the background of the gel was blue. In function of the distance of migration of proteins, one could determine the molecular weights of the enzymes having digested the gelatin. The MMP activity was quantified by morphometric analysis with the aid of a Visiolab computer.

[2] = test system: MMP-2; assay: MMP activity of non-stimulated skin explants (gelatin zymography), MMP-2; settings: 10 μg/ml, 48 hours
Procedure: as §1, §2, §3, §4, §5

[3] = test system: MMP-9; assay: MMP activity of skin explants stimulated with hyaluronane (gelatin zymography), MMP-9; settings: skin explants stimulated with 1 mg/ml of hyaluronane, 10 μg/ml
Procedure: as §1
as §5, with “computer. […]” for “computer.”
(§6) The protocol of the studies was the same as that used for the study of the MMP activity of the non-stimulated skin explants, but with hyaluronane with a concentration of […] and the samples of oligosaccharides with a concentration of 10 μg/ml, added in the culture medium.

[4] = test system: MMP-2; assay: MMP activity of skin explants stimulated with hyaluronane (gelatin zymography), MMP-2; settings: skin explants stimulated with 1 mg/ml of hyaluronane, 10 μg/ml
Procedure: as §1
as §5, with “computer. […]” for “computer.”
as §6

[5] = test system: MMP-2; assay: MMP activity of non-stimulated skin fibroblasts in monolayer (zymography), expression of MMP-2; settings: 10 μg/ml, 24 hours (section b.2 fibroblasts; title says skin explants)
Source text: (§7) Skin fibroblast from a skin of the belly of a person were cultivated until the 7th cellular passage in a DMEM Glutamax (GIBCO) medium containing 1% of antibiotics and of fungicide and 10% of fetal calf serum and were used for the experiment. The fibroblasts were inseminated on 6-well plates at a density of 5.10^4 cells per well. When at the confluence, the culture medium was replaced by a DMEM medium, without phenol red containing 0.1% of BSA and containing the different substances to be treated at a concentration of 10 μg/ml. After 24 hours of culture at 37° C. (5% (v/v) CO2, 95% (v/v) air) the samples were recovered.
Extracellular medium−1 ml of medium+2 rinsings with 0.25 ml of PBS
Intracellular medium−cellular carpet sonicated with 1 ml of MMP buffer
MMP Buffer composition 0.1 M Tris-HCl, pH 7.5, 0.1 M NaCl, 10 mM CaCl2, 1 mM zinc acetate
(§8) As in the case of the cultures of skin explants, the culture media of the fibroblasts were studied with zymography.
(§9) When the fibroblasts are cultivated in monolayer, only the widely secreted MMP-2 is visible with a very low quantity of MMP-9, however, present.

[6] = test system: MMP-2; assay: MMP activity of skin fibroblasts stimulated with 1 mg/ml hyaluronane (zymography), expression of MMP-2; settings: 1 mg/ml of hyaluronane, 10 μg/ml, 24 hours (section b.2 fibroblasts; title says skin explants not stimulated)
Source text: as §7, §8
a.2.2) MMP Activity of the Fibroblasts of Skin Stimulated with 1 mg/ml of Hyaluronane
The protocol of the studies is the same as that used for the study of the MMP activity of the non-stimulated fibroblasts of skin, but with hyaluronane with a concentration of 1 mg/ml and the samples of oligosaccharides with a concentration of 10 μg/ml, added in the culture medium.
as §9

C[C@H](O)[C@@H](O)[C@@H](O)[C@H](O)C=O [Fucose, fucose]
Active/Inactive MMP-9 (active form/inactive form relationship of the enzyme) [1]: 2.38
% effectiveness: reduction of active/inactive relationship of MMP-9 ([1]; vs control): 57%
Active/Inactive MMP-2 (active form/inactive form relationship of the enzyme) [2]: 0.80
% of effectiveness: reduction of active/inactive relationship of MMP-2 ([2]; vs control): 6%
Active/Inactive MMP-9 (active form/inactive form relationship of the enzyme) [3]: 3.54
% effectiveness: reduction of active/inactive relationship of MMP-9 ([3]; vs control): 50%
Active/Inactive MMP-2 (active form/inactive form relationship of the enzyme) [4]: 1.65
% effectiveness: reduction of active/inactive relationship of MMP-2 ([4]; vs control): Ns
% of effectiveness: reduction of the expression of MMP-2 [5]: 6%
% effectiveness: reduction of the expression of MMP-2 with respect to the control [6]: 11%
